# What was measured:
# [1] = 25° C.; cited from earlier work
# potatoes = test: sprouting on continued storage after large-scale treatment; type: in vivo
# Description: Three to four repeated treatments of the product being stored are carried out in practice at regular time intervals.
# A storage aid is therefore also suitable for sprouting suppression in seed potatoes for a limited period of time.
# Therefore, seed potatoes must not, in principle, ever be treated directly with a growth regulator.
# [2] = losses due to evaporation (FIG. 1); type: physicochemical; settings: 30° C., after 30 days
# Excerpt: FIG. 1 is a graph showing losses of isopropyl-N-(m-chlorophenyl) carbamate due to evaporation;
Molecule,vapor pressure [1] [mbar],sprouting ability after conventional intensive hot fumigation (FIG. 5) (potatoes),losses due to evaporation [2] [%]
"CC(C)OC(=O)Nc1ccccc1 [IPC, isopropyl-N-phenyl carbamate]",0.144,,
trifluoromethyl-2-thienyl carbamate,5.5,,
"CC(C)OC(=O)Nc1cccc(Cl)c1 [CIPC, isopropyl-N-(m-chlorophenyl)-carbamate]",,completely suppressed,0.03
CCOC(=O)Nc1ccccn1 [ethyl-2-pyridyl carbamate],0.1,,

# From patent US20150144521A1, “STORAGE AIDS COMPRISING PLANT PROTECTANTS AND THEIR USE” (priority 2012, published 2015)
